Here are results for 13 compounds from patent publication US20030236218A1, “Aryl phosphate derivatives of d4T with selective activity against adenovirus and HIV” (priority 2002, published 2003).

For orientation: IC50 means the concentration that gives 50% inhibition. As usually defined, the Solubility is how much of the substance goes into solution per volume. Higher therefore signals much dissolved substance. Usually Vss stands for the apparent volume that relates the amount in the body to the concentration in plasma or blood.

Converted amounts (≈) assume the structure as drawn. Marks after values point to notes of the source that are not given here.

In data set [1] the test system is adenovirus strain Type 5, strain adenoid 75. As to the kind of experiment: Adenovirus plaque formation assay in skin fibroblast cell line SF. The class given is cell-based, human adenovirus. Conditions: Adenovirus Type 5, 7 days, ± s.e., read-out: IC50, ADV-induced plaque formation. From the text:
Virus stocks. The HIV-1 strain used in this study was HTLV-IIIB (Uckun et al., 1998 Antimicro. Agents and Chemother., 42:383-388). The non-HIV viruses included in the present study were the gancyclovir-sensitive cytomegalovirus (CMV) strain AD169 (ATCC VR-538); acyclovir-sensitive herpes simplex virus (HSV) Type I strain HF (ATCC VR-260); acyclovir-sensitive HSV Type II strain G (ATCC VR-734); adenovirus strain Type 5, strain adenoid 75 (ATCC VR-5); enterovirus strain, ECHO 30, strain Bastianni (ATCC VR-322); and respiratory syncytial virus (RSV), strain Long (ATCC VR-26).
Plaque formation assays. Plaque assays were used to examine the activity of the compounds against non-HIV viruses. The skin fibroblast cell line SF (ATCC CRL-2097) was used as a target for AD169, Adenovirus Type 5. […] cell line (ATCC CCL-81) was used as a target for HSV HF and G. The HEP-2 cell line (ATCC CCL-23) was used as a target for the RSV strain Long. These cell lines were cultured at 1×10^5 cells/well in 24-well (all but ECHO 30-infected SF) or 6-well (ECHO 30-infected SF) tissue culture plates with 0.9% methylcellulose or 0.4% SeaPlaque agarose semisolid support. Minimum Essential Medium (MEM) with Earle's salts (Gibco), L-glutamine, non-essential amino acids, 2% heat-inactivated fetal bovine serum, 1% penicillin/streptomycin, and 0.05% gentamicin served as the culture medium. The incubation times were 3 days for HF, G, ECHO 30, and Long; and 7 days for AD169 and Adenovirus Type 5. Plaque counting was performed with a 20X dissecting microscope for AD169, Type 5, ECHO 30, and RSV Long, and with a light box for HF and G. The fixative agent was crystal violet for all viruses, except for the CMV strain AD169 for which methylene blue was used. Percent inhibition of plaque formation was calculated by comparing the plaque numbers from the test substance-treated infected cells with the plaque numbers from untreated infected cells (i.e., virus controls). The IC50 values were determined using the Statview statistics program (SAS Institute, Inc., Cary, N.C.).
Statistical analysis. Each drug was tested at 6-7 different concentrations ranging from 0.0001 μM to 100 μM. Each assay was set up in triplicate wells and repeated 1-3 times. An IC50 value was calculated from each set of triplicate wells using nonlinear regression modeling of the exponential form of the linearized equation (Statview, SAS Institute, Inc., Cary, N.C.). […] The IC50 values obtained were correlated to the log transformed hydrolysis rate constants by fitting a linear model (JMP Software, SAS Institute Inc., Cary, N.C.). P-values less than 0.05 were deemed significant.
The skin fibroblast cell line SF (ATCC CRL-2097) was used as a target for AD169, Adenovirus Type 5, and ECHO 30; the VERO cell line (ATCC CCL-81) was used as a target for HF and G; and the HEP-2 cell line (ATCC CCL-23) was used as target for the RSV strain Long. Results are expressed as the average IC50 values in μM. Stavudine (STV) was included as a control.

A short description of data set [2]: Hydrolysis rate in alkali conditions. The class given is physicochemical. How it is done:
Statistical analysis. Each drug was tested at 6-7 different concentrations ranging from 0.0001 μM to 100 μM. Each assay was set up in triplicate wells and repeated 1-3 times. An IC50 value was calculated from each set of triplicate wells using nonlinear regression modeling of the exponential form of the linearized equation (Statview, SAS Institute, Inc., Cary, N.C.). Hydrolysis rates were determined by fitting single exponential decay equations to the disappearance of the compound in alkali conditions (all R^2 values greater than 0.85). The IC50 values obtained were correlated to the log transformed hydrolysis rate constants by fitting a linear model (JMP Software, SAS Institute Inc., Cary, N.C.). P-values less than 0.05 were deemed significant.

Another data set in a line: Solubility. The class given is physicochemical.
The nature of data set [3]: Octanol/water partition coefficient, shake flask method. Format: physicochemical. To be noted: 4 hours at room temperature. How it is done:
HPLC purification was achieved using a reverse-phase Lichrospher column (250×4 mm, Hewlett-Packard, RP-18, Cat. #79925) and an isocratic flow (1 ml/minute) consisting of water (70%) and acetonitrile (30%). Melting points were determined using a Melt John's apparatus and are uncorrected. Column chromatography was performed using silica gel obtained from Baker Company. The octanol/water partition coefficient was determined by the shake flask method. The phosphoramidate analogs were added to 2 ml of water and 2 ml of octanol in a glass vial. The mixture was shaken for 4 hours at room temperature. The two phases were carefully separated and filtered through a Millipore filter and analyzed by HPLC. The partition coefficient was calculated using the ratio of the area under the curve for octanol and water, respectively.

The nature of data set [4]: Pharmacokinetic studies in mice, intravenous administration. To be noted: plasma analyte = label, after i.v. 100 mg/kg compound 113. The class given is in vivo, Balb/c mice.
Description: Female Balb/c mice (6-8 weeks old) from Taconic (Germantown, N.Y.) were housed in a controlled environment (12-hours of light/12-hours of dark, 22±1° C., 60±10% relative humidity), which is fully accredited by the USDA. All rodents were housed in microisolator cages (Lab Products, Inc., NJ) containing autoclaved bedding. The mice were allowed free access to autoclaved pellet food and tap water throughout the study.
Blood samples (˜500 μL) were obtained from the ocular venous plexus by retro-orbital venipuncture at 0, 2, 5, 10, 15, 30, 45, 60, 120, 240 and 360 minutes after intravenous injection.
All collected blood samples were heparinized and centrifuged at 7000×g for 5 minutes to separate the plasma fraction from the whole blood. The plasma samples were then processed immediately using the extraction procedure described above.
Pharmacokinetic modeling and parameter calculations were carried out using the WinNonlin Professional Version 3.0 (Pharsight, Inc., Mountain, Calif.) pharmacokinetics software (Chen et al., Pharm. Res., 16, 1003 (1999); Chen et al., Pharm. Res., 16, 117 (1999); Chen et al., J. Clin. Pharmacol., 39, 1248 (1999); Uckun et al., Clin. Cancer Res., 5, 2954 (1999); and Uckun et al., J. Pharmacol. Exp. Ther., 291, 1301 (1999)). An appropriate model was chosen on the basis of the lowest sum of weighted squared residuals, the lowest Schwartz Criterion (SC), the lowest Akaike's Information Criterion (AIC) value, the lowest standard errors of the fitted parameters, and the dispersion of the residuals. The elimination half-life was estimated by linear regression analysis of the terminal phase of the plasma concentration-time profile. The area under the concentration-time curve (AUC) was calculated according to the linear trapezoidal rule between the first sampling time (0 hours) and the last sampling time plus C/k, where C is the concentration of the last sampling and k is the elimination rate constant. The systemic clearance (CL) was determined by dividing the dose by the AUC. The metabolic clearance of the parent drug, the formation clearance of the metabolite, the clearance elimination of the metabolite, and the distribution clearance of the metabolite were estimated by simultaneous fitting of the concentration of parent drug and metabolites as a function of time curve to pharmacokinetic models (see FIGS. 7A & 8A) specified as a system of differential equations (Gabrielsson & Weiner, Phamacokinetic/Phamacodynamic Data Analysis: Concepts and Applications, Swedish Pharmaceutical Press (1997)).
The mark [5] stands for this setting: estimate from composite curve of pooled data.

Turning to `COC(=O)C(C)NP(=O)(OCC1C=CC(n2cc(C)c(=O)[nH]c2=O)O1)Oc1cccc(Br)c1` (stereo not shown) [Compound 602, 5′-[3-Bromophenylmethoxyalaninyl phosphate]-2′, 3′-didehydro-3′-deoxy thymidine], in data set [1], the concentration for half-maximal inhibition (IC50) stood at 235 ± 145 nM. In addition, the “Hydrolysis Rate” value in data set [2] came to 0.0338 min⁻¹.

Turning to `COC(=O)[C@H](C)NP(=O)(OCC1C=CC(n2cc(C)c(=O)[nH]c2=O)O1)Oc1ccc(F)cc1` (stereo partly shown) [Compound 604, 5′-[4-Flurophenylmethoxyalaninyl phosphate]-2′, 3′-didehydro-3′-deoxy thymidine], in data set [1], the IC50 is 100 ± 40 nM. The Solubility in the data set “Solubility” stood at 7500 µg/mL. Besides, in data set [3], the “Oct/Water (log P)” value amounted to 0.54. Moreover, the “Hydrolysis Rate” value in data set [2] turned out to be 0.0117 min⁻¹.

As for `COC(=O)[C@H](C)NP(=O)(OCC1C=CC(n2cc(C)c(=O)[nH]c2=O)O1)Oc1ccc(OC)cc1` (stereo partly shown) [Compound 598, 5′-[4-Methoxyphenyl methoxylaninylphosphate]-2′, 3′-didehydro-3′-deoxy thymidine], in data set [1], the IC50 is 555 ± 115 nM. The compound also gave a Solubility in “Solubility” of 11900 µg/mL (≈ 24 mM). The “Oct/Water (log P)” value in data set [3] stood at 0.39. The “Hydrolysis Rate” value in data set [2] was 0.0102 min⁻¹.

Regarding `COC(=O)[C@H](C)NP(=O)(OCC1C=CC(n2cc(C)c(=O)[nH]c2=O)O1)Oc1ccccc1` (stereo partly shown) [Compound 607, 5′-[Phenyl methoxylaninylphosphate]-2′, 3′-didehydro-3′-deoxy thymidine], in data set [1], the IC50 amounted to 57.5 ± 23 nM. In addition, in the data set “Solubility”, the Solubility was determined as 44700 µg/mL (≈ 96 mM). In addition, the “Oct/Water (log P)” value in data set [3] was found to be 0.38. Further, in data set [2], the “Hydrolysis Rate” value came to 0.0082 min⁻¹.

As for `COC(=O)[C@H](C)NP(=O)(OCC1C=CC(n2cc(C)c(=O)[nH]c2=O)O1)Oc1ccc(C#N)cc1` (stereo partly shown) [Compound 601, 5′-[4-Cyanophenylmethoxyalaninyl phosphate]-2′, 3′-didehydro-3′-deoxy thymidine], the 50% inhibitory concentration (IC50) in data set [1] was determined as 575 ± 5 nM. The same compound registered a Solubility in the data set “Solubility” of 4000 µg/mL. For the same compound, in data set [3], the “Oct/Water (log P)” value is 0.05*. The “Hydrolysis Rate” value in data set [2] is 0.1199 min⁻¹.

Turning to `COC(=O)C(C)NP(=O)(OCC1C=CC(n2cc(C)c(=O)[nH]c2=O)O1)Oc1ccccc1Cl` (stereo not shown) [Compound 606, 5′-[2-Chlorophenylmethoxyalaninyl phosphate]-2′, 3′-didehydro-3′-deoxy thymidine], the IC50 in data set [1] stood at 28.5 ± 12 nM. In the data set “Solubility”, this compound displayed a Solubility of 7300 µg/mL. Besides, the “Oct/Water (log P)” value in data set [3] was determined as 0.84. Further, the “Hydrolysis Rate” value in data set [2] came out at 0.0370 min⁻¹.

Turning to `COC(=O)[C@H](C)NP(=O)(OCC1C=CC(n2cc(C)c(=O)[nH]c2=O)O1)Oc1ccc(Br)cc1` (stereo partly shown), the Vss in data set [4] (setting [5]) was 0.7311 L/kg; in data set [4] (mean ± S.E.M) it was “(791.8 ± 113.1) ml/kg”.

Turning to `COC(=O)[C@H](C)NP(=O)(OC[C@@H]1C=C[C@H](n2cc(C)c(=O)[nH]c2=O)O1)Oc1ccc(Br)cc1` (stereo partly shown), the figures for the Vss in data set [4] (setting [5]) and in data set [4] (mean ± S.E.M) were 0.8521 L/kg and “(1005.3 ± 134.0) ml/kg”, respectively.

For `COC(=O)[C@H](C)NP(=O)(OCC1C=CC(n2cc(C)c(=O)[nH]c2=O)O1)Oc1cccc(N(C)C)c1` (stereo partly shown) [Compound 599, 5′-[3-Dimethylaminophenyl methoxylaninylphosphate]-2′, 3′-didehydro-3′-deoxy thymidine], the IC50 in data set [1] is 230 ± 20 nM. In addition, the Solubility in the data set “Solubility” was 18000 µg/mL (≈ 35.4 mM). For the same compound, the “Oct/Water (log P)” value in data set [3] stood at 0.76. Also, the “Hydrolysis Rate” value in data set [2] was 0.0058 min⁻¹.

With `COC(=O)C(C)NP(=O)(OCC1C=CC(n2cc(C)c(=O)[nH]c2=O)O1)Oc1ccccc1Br` (stereo not shown) [Compound 605, 5′-[2-Bromophenylmethoxyalaninyl phosphate]-2′, 3′-didehydro-3′-deoxy thymidine], the IC50 in data set [1] amounted to 38.5 ± 22 nM. The same compound came in with a Solubility in “Solubility” of 4200 µg/mL. Further, the “Oct/Water (log P)” value in data set [3] is on record as 0.95. In addition, the “Hydrolysis Rate” value in data set [2] was 0.0336 min⁻¹.

In the case of `COC(=O)C(C)NP(=O)(OCC1C=CC(n2cc(C)c(=O)[nH]c2=O)O1)Oc1cc(Cl)ccc1Cl` (stereo not shown) [Compound 608, 5′-[2,5-Dichlorophenylmethoxyalaninyl phosphate]-2′, 3′-didehydro-3′-deoxy thymidine], in data set [1], the IC50 was 33 ± 17 nM. The compound further registered a Solubility in the data set “Solubility” of 3700 µg/mL. Also, in data set [3], the “Oct/Water (log P)” value turned out to be 1.41. Moreover, the “Hydrolysis Rate” value in data set [2] worked out at 0.1840 min⁻¹.

Regarding `COC(=O)C(C)NP(=O)(OCC1C=CC(n2cc(C)c(=O)[nH]c2=O)O1)Oc1ccc(Br)cc1Cl` (stereo not shown) [Compound 603, 5′-[4-Bromo-2-chlorophenylmethoxyalaninyl phosphate]-2′, 3′-didehydro-3′-deoxy thymidine], the IC50 in data set [1] is 80 ± 10 nM. This compound had a Solubility in “Solubility” of 1800 µg/mL. In data set [3], the “Oct/Water (log P)” value was 1.81. In data set [2], the “Hydrolysis Rate” value is 0.1500 min⁻¹.

`COC(=O)C(C)NP(=O)(OCC1C=CC(n2cc(C)c(=O)[nH]c2=O)O1)Oc1c(OC)cccc1OC` (stereo not shown) [Compound 600, 5′-[2,6-Dimethoxyphenylmethoxyalaninyl phosphate]-2′, 3′-didehydro-3′-deoxy thymidine]: the IC50 in data set [1] worked out at 290 ± 120 nM. This compound also displayed a Solubility in the data set “Solubility” of 43600 µg/mL. In data set [3], the “Oct/Water (log P)” value is recorded as 0.40. Also, the “Hydrolysis Rate” value in data set [2] was determined as 0.0029 min⁻¹.
